Patent publication US20260118363A1, “Application of GLUN2A and NMDA Receptor Containing GLUN2A as Targets in Screening Drugs for Treating Depression” (Synphatec (Shanghai) Biopharmaceutical Technology Co., Ltd., priority 2021, published 2026)

Experiments:
mice [1] = assay: Forced swim test; assay type: in vivo, mouse; settings: for immobility time in the forced swim test: 10 mg/kg intraperitoneal injection, 1 hour after injection
Procedure: The mice were placed in a transparent organic glass water tank with a diameter of 25 cm and a height of 30 cm, which was filled with 15 cm high of water with a temperature of 23-25° C., and the total recording time was 6 min. The immobility time of the mice within the latter 4 min was analysed, reflecting the degree of helplessness and despair of the mice.
(§1) MK-801 at a dose of 0.1 mg/kg, ketamine at a dose of 10 mg/kg, and Ro 25-6981 at a dose of 10 mg/kg were administrated to mice by intraperitoneal injection. Behavioural experiments such as subsequent open field tests, tail suspension tests, and forced swim tests were carried out 1 hour post intraperitoneal injection.

[2] = system: excitatory neurons in the hippocampus; assay: Whole cell recording of intrinsic excitability in hippocampal slices; assay type: cell-based, mouse; settings: for excitability of hippocampal neurons (number of action potentials): MK-801 10 µM, ketamine 20 µM
Procedure: The beaker containing choline chloride slice solution was placed in an ice box and continuously introduced with a mixture of 95% O2 and 5% CO2 to saturate it with oxygen for use. After anesthetized with isoflurane, mice aged 4-8 weeks were quickly decapitated and euthanized. After exposing the skull and peeling off the dura mater, the whole brain was placed in a pre-cooled choline chloride solution for about 1 minute to reduce brain temperature. The whole brain was then taken out and the bilateral hippocampus were peeled off and attached to the surface of the agar block with one end of the hippocampus close to one of the edges of the agar block, after which the hippocampus-attached agar block was glued with 502 adhesive to a removable tray of the oscillating slicer, which was secured in the slicing tank of the oscillating slicer filled with pre-cooled choline chloride slicing solution. The oscillating slicer blade was adjusted to the horizontal position, then start the slicer to begin slice. The speed of the oscillating slicer was set to about 0.2 mm/s, and the slice thickness was 400 μm. The sliced hippocampus was carefully placed into ACSF preheated in water bath at 33-34° C. using a rubber hose and incubated for 30-60 minutes with a continuous introduction of a gas mixture of 95% O2 and 5% CO2. After incubation at 33-34° C., the vessel containing the brain slices was removed from the water bath and incubated at room temperature for about 30 min with continuous aeration and then electrophysiological recordings were performed. Hippocampal slices can be used for about 6 hours under room temperature with continuous aeration.
Hippocampal slices after incubation were carefully transferred to the bath of the microscope carrier stage with a pipette, and were held in place by pressing using an anchor attached to parallel nylon filaments, using a peristaltic pump to keep the bath continuously pumped with oxygen-saturated ACSF, and the temperature was maintained at room temperature of about 23-26° C. The CA1 region of the hippocampus was firstly localised at low magnification (10×), then switching to high magnification (40×) to locate CA1, after which the field of view was switched to the monitor to look for pyramidal neurons with good condition in hippocampal CA1. […] In the experiment, a P-1000 electrode drawing instrument was used to draw glass electrodes using a three-step method, making the impedance of the electrode into the liquid 4-6 MS2. Prior to electrode into the liquid, a 10 ml syringe was used to apply about 2 ml or so of positive pressure into the electrode to prevent clogging of the electrode tip, and the baseline of the recording software was reset to zero using the Multiple 700B. A microelectrode operator was applied to slowly approach the electrode to the surface of the cell. When the electrode touched the surface of the cell, a “dimple-shaped” depression would appear. At this time, positive pressure would be immediately released and appropriate negative pressure would be applied to form a seal between the electrode and the cell. […] After stabilizing for about 30-60 seconds, negative pressure was applied to break the membrane, and at this moment, a whole cell mode was formed. In current clamp mode, a depolarized step current stimulation of 10-330 pA was applied, with a step current of 20 pA. The intrinsic excitability of the neuron was evaluated by analyzing the number of action potentials generated by the neuron.

mice [3] = assay: Tail suspension test; assay type: in vivo, mouse; settings: 10 mg/kg
Procedure: After fixing the mice at about 1.5 cm from the distal end of the tail, the mice were suspended with their heads facing downwards at a distance of about 35 cm from the ground. The total duration of recording was 6 min, and the percentage of time that the mice remained stationary during the latter 4 min was analysed to reflect the degree of desperation of mice.
as §1

[4] = GluN2A KO mice, vs control group
[5] = hippocampal slices from GluN2A KO mice
[6] = hippocampal slices from WT mice, Ro 25-6981 3 M (1-2 hours incubation), same depolarizing current stimulation

SMILES | immobility time in the forced swim test (mice [1]; [4]) | immobility time in forced swimming (mice [1]; GluN2A conditional knockout mice (tamoxifen-induced, adult), after treatment with MK-801 (FIG. 5)) | rapid antidepressant like behavior (immobility time) (mice [1]; WT mice with GluN2B selectively inhibited by Ro 25-6981 plus MK-801, FIG. 11: tail suspension and forced swim tests) | immobility time in the forced swim test (mice [1]; WT mice, vs control (saline)) | immobility time in forced swimming (mice [1]; control mice (UBC-CreERT/Grin2a flox/flox without GluN2A knockout), after administration of MK-801 (FIG. 5)) | intrinsic excitability of excitatory neurons in the hippocampus ([2]; acute hippocampal slices of WT mice incubated with Ro 25-6981 while adding MK-801) | excitability of hippocampal neurons (number of action potentials) [2, 5] | excitability of hippocampal neurons (number of action potentials) [2, 6] | immobility time in tail suspension test (mice [3]; GluN2A KO mice) | immobility time in tail suspension test (mice [3]; WT mice, vs control (Saline) group)
C[C@]12N[C@H](Cc3ccccc31)c1ccccc12 [MK-801] | comparable | not altered | can still induce rapid antidepressant like behavior | significantly reduced | significantly reduced | still induced an increase | blocked the increase in excitability | significantly increased |  | 
C[C@@H](CN1CCC(Cc2ccccc2)CC1)[C@@H](O)c1ccc(O)cc1 [Ro 25-6981] | significantly reduced |  |  | significant decrease |  |  |  | did not change | significantly reduced | significant decrease
CNC1(c2ccccc2Cl)CCCCC1=O (centres unmarked) [ketamine] | comparable |  |  | significantly reduced |  |  | blocked the increase in excitability | significantly increased |  | 
